Ki data for 10 molecules are collected here from patent US20190185518A9, “WARHEAD-CONTAINING PEPTIDOMIMETIC MACROCYCLES AS MODULATORS OF BFL-1” (AILERON Therapeutics, Inc., priority 2017, published 2019).

One assay has as its target Bcl-xL (Homo sapiens, UniProt Q07817). Put plainly: Ki determination for Bcl-xL (BCL-2 family binding spectrum). As to conditions: read-out: Ki BCL-XL. The source says:
To assess the binding and affinity of compounds that antagonize the interaction between a peptide and an acceptor protein, a fluorescence polarization assay (FPA) utilizing a fluoresceinated peptidomimetic macrocycle derived from a peptidomimetic precursor sequence is used, for example. The FPA technique measures the molecular orientation and mobility using polarized light and fluorescent tracer. […] A compound that antagonizes the interaction between the fluoresceinated peptidomimetic macrocycle and an acceptor protein will be detected in a competitive binding FPA experiment.
For example, putative antagonist compounds (1 nM to 1 mM) and a fluoresceinated peptidomimetic macrocycle (25 nM) are incubated with the acceptor protein (50 nM) in binding buffer (140 mM NaCl, 50 mM Tris-HCL, pH 7.4) for 30 minutes at room temperature. Antagonist binding activity is measured, for example, by fluorescence polarization on a luminescence spectrophotometer (e.g. Perkin-Elmer LS50B). Kd values may be determined by nonlinear regression analysis using, for example, Graphpad Prism software (GraphPad Software, Inc., San Diego, Calif.).

In a further assay the target is Mcl-1 (Homo sapiens, UniProt Q07820). The experiment in a line: Ki determination for Mcl-1 (BCL-2 family binding spectrum). Particulars: read-out: Ki MCL-1. Summed up:
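Binding to Mcl-1 was measured as displacement of a fluorescein-labelled macrocyclic peptidomimetic, read by fluorescence polarization. Constants were fitted by nonlinear regression.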

Usually pKi stands for the negative decadic logarithm of the Ki, by convention in mol/L.

pKi: −log10 of the molar value. Starred links: 1 amine or outer side, 2 acyl side, 3 side chain; linkers in the order of their positions; H or OH if unused. Positions of bridges follow the written chain, without caps; N, C: chain ends. Non-standard residues stand in square brackets, D forms with d. Residues, ends and D or L forms follow the SMILES beside them. X1 = CC(C)CCC[C@H](N[*:1])C(=O)[*:2]; R8 = C=CCCCCCC[C@@](C)(N)C(=O)O; S5 = C=CCCC[C@](C)(N)C(=O)O

Bcl-xL, sequence (Q07817 whole entry, species assumed): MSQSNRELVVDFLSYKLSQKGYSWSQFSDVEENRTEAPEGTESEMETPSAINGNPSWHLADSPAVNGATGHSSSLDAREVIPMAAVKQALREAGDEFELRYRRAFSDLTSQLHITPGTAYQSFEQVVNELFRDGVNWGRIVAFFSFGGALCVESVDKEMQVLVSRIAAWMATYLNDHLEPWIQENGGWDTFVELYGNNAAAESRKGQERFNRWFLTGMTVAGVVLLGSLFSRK
Mcl-1, sequence (Q07820 whole entry, species assumed): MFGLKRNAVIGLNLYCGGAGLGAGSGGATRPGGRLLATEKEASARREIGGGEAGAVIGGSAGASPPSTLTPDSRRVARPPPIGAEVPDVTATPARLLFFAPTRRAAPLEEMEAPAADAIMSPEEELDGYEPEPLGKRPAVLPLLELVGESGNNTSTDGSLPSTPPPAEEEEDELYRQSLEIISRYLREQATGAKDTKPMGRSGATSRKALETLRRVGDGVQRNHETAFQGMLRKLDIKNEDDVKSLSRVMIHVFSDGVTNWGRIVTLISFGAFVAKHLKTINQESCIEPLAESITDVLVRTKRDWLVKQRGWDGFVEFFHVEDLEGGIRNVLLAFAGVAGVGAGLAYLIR

Turning to `CC[C@H](C)[C@H](NC(C)=O)C(=O)N[C@@H](Cc1c[nH]c2ccccc12)C(=O)N[C@H](C(=O)N[C@@H](C)C(=O)N[C@@H](CCC(N)=O)C(=O)N[C@@H](C)C(=O)N[C@@H](CC(C)C)C(=O)N[C@@H](CCCNC(=N)N)C(=O)N[C@]1(C)CCCCCCC=CCCC[C@@](C)(C(=O)N[C@@H](Cc2ccc(O)cc2)C(=O)N[C@@H](Cc2ccc(O)cc2)C(=O)N[C@@H](C)C(N)=O)NC(=O)[C@H](C)NC(=O)[C@H](Cc2ccccc2)NC(=O)[C@H](CCC(=O)O)NC(=O)[C@H](CC(=O)O)NC(=O)CNC(=O)[C@H]([C@@H](C)CC)NC1=O)[C@@H](C)CC` [compound 1643] (Ac-IWIAQALR[R8]IGDEFA[S5]YYA-NH2; staple 9-16), at Bcl-xL, the negative-log Ki (pKi) was 7.81.

As for `CC[C@H](C)[C@H](NC(C)=O)C(=O)N[C@@H](Cc1c[nH]c2ccccc12)C(=O)N[C@H](C(=O)N[C@@H](C)C(=O)N[C@@H](C)C(=O)N[C@@H](C)C(=O)N[C@@H](CC(C)C)C(=O)N[C@@H](CCCNC(=N)N)C(=O)N[C@]1(C)CCCCCCC=CCCC[C@@](C)(C(=O)N[C@@H](Cc2ccc(O)cc2)C(=O)N[C@@H](Cc2ccc(O)cc2)C(=O)N[C@@H](C)C(N)=O)NC(=O)[C@H](CC(N)=O)NC(=O)[C@H](Cc2ccccc2)NC(=O)[C@H](C)NC(=O)[C@H](CC(=O)O)NC(=O)CNC(=O)[C@H]([C@@H](C)CC)NC1=O)[C@@H](C)CC` [compound 1653] (Ac-IWIAAALR[R8]IGDAFN[S5]YYA-NH2; staple 9-16), on Bcl-xL, the pKi is 7.59.

`CC[C@H](C)[C@H](NC(C)=O)C(=O)N[C@@H](Cc1c[nH]c2ccccc12)C(=O)N[C@H](C(=O)N[C@@H](C)C(=O)N[C@@H](CCC(N)=O)C(=O)N[C@@H](C)C(=O)N[C@@H](C)C(=O)N[C@@H](CCCNC(=N)N)C(=O)N[C@]1(C)CCCCCCC=CCCC[C@@](C)(C(=O)N[C@@H](Cc2ccc(O)cc2)C(=O)N[C@@H](Cc2ccc(O)cc2)C(=O)N[C@@H](C)C(N)=O)NC(=O)[C@H](CC(N)=O)NC(=O)[C@H](C)NC(=O)[C@H](C)NC(=O)[C@H](CC(=O)O)NC(=O)CNC(=O)[C@H]([C@@H](C)CC)NC1=O)[C@@H](C)CC` [compound 1664] (Ac-IWIAQAAR[R8]IGDAAN[S5]YYA-NH2; staple 9-16): the negative logarithm of the Ki (pKi) at Bcl-xL was 6.81. The same measure, in the same setting: in the case of `CC[C@H](C)[C@H](NC(C)=O)C(=O)N[C@@H](Cc1c[nH]c2ccccc12)C(=O)N[C@H](C(=O)N[C@@H](C)C(=O)N[C@@H](CCC(N)=O)C(=O)N[C@@H](C)C(=O)N[C@@H](CC(C)C)C(=O)N[C@@H](CCCNC(=N)N)C(=O)N[C@]1(C)CCCCCCC=CCCC[C@@](C)(C(=O)N[C@@H](Cc2ccc(O)cc2)C(=O)N[C@@H](Cc2ccc(O)cc2)C(=O)N[C@@H](C)C(N)=O)NC(=O)[C@H](CC(N)=O)NC(=O)[C@H](Cc2ccccc2)NC(=O)[C@H](C)NC(=O)[C@H](CC(=O)O)NC(=O)[C@H](C)NC(=O)[C@H]([C@@H](C)CC)NC1=O)[C@@H](C)CC` [compound 1665] (Ac-IWIAQALR[R8]IADAFN[S5]YYA-NH2; staple 9-16) it was 8.11. Turning to `CC[C@H](C)[C@H](NC(C)=O)C(=O)N[C@@H](Cc1c[nH]c2ccccc12)C(=O)N[C@H](C(=O)N[C@@H](C)C(=O)N[C@@H](CCC(N)=O)C(=O)N[C@@H](C)C(=O)N[C@@H](CC(C)C)C(=O)N[C@@H](CCCNC(=N)N)C(=O)N[C@]1(C)CCCCCCC=CCCC[C@@](C)(C(=O)N[C@@H](Cc2ccc(O)cc2)C(=O)N[C@@H](Cc2ccc(O)cc2)C(=O)N[C@@H](C)C(N)=O)NC(=O)[C@H](CC(N)=O)NC(=O)[C@H](Cc2ccccc2)NC(=O)[C@H](CCC(N)=O)NC(=O)[C@H](CC(=O)O)NC(=O)CNC(=O)[C@H](Cc2ccccc2)NC1=O)[C@@H](C)CC` [compound 1670] (Ac-IWIAQALR[R8]FGDQFN[S5]YYA-NH2; staple 9-16), the pKi at Bcl-xL is 7.59.

As to `CC[C@H](C)[C@H](NC(C)=O)C(=O)N[C@@H](Cc1c[nH]c2ccccc12)C(=O)N[C@@H](Cc1ccccc1)C(=O)N[C@@H](C)C(=O)N[C@@H](CCC(N)=O)C(=O)N[C@@H](C)C(=O)N[C@@H](CC(C)C)C(=O)N[C@@H](CCCNC(=N)N)C(=O)N[C@]1(C)CCCCCCC=CCCC[C@@](C)(C(=O)N[C@@H](Cc2ccc(O)cc2)C(=O)N[C@@H](Cc2ccc(O)cc2)C(=O)N[C@@H](C)C(N)=O)NC(=O)[C@H](CC(N)=O)NC(=O)[C@H](Cc2ccccc2)NC(=O)[C@H](CCC(N)=O)NC(=O)[C@H](CC(=O)O)NC(=O)CNC(=O)[C@H]([C@@H](C)CC)NC1=O` [compound 1672] (Ac-IWFAQALR[R8]IGDQFN[S5]YYA-NH2; staple 9-16), on Bcl-xL, the pKi is 7.59.

On to `CC[C@H](C)[C@H](NC(C)=O)C(=O)N[C@@H](Cc1c[nH]c2ccccc12)C(=O)N[C@H](C(=O)N[C@@H](C)C(=O)N[C@@H](CCC(N)=O)C(=O)N[C@@H](C)C(=O)N[C@@H](CC(C)C)C(=O)N[C@@H](CCCNC(=N)N)C(=O)N[C@]1(C)CCCCCCC=CCCC[C@@](C)(C(=O)N[C@@H](Cc2ccc(O)cc2)C(=O)N[C@@H](Cc2ccc(O)cc2)C(=O)N[C@@H](C)C(N)=O)NC(=O)[C@H](CC(N)=O)NC(=O)[C@H](Cc2ccccc2)NC(=O)[C@H](C)NC(=O)[C@H](CC(=O)O)NC(=O)CNC(=O)[C@H](CCCC(C)C)NC1=O)[C@@H](C)CC` [compound 1702] (Ac-IWIAQALR[R8][X1]GDAFN[S5]YYA-NH2; staple 9-16), for which the pKi on Bcl-xL is 8.40. Turning to `CC[C@H](C)[C@H](NC(C)=O)C(=O)N[C@@H](Cc1c[nH]c2ccccc12)C(=O)N[C@H](C(=O)N[C@@H](C)C(=O)N[C@@H](C)C(=O)N[C@@H](C)C(=O)N[C@@H](CC(C)C)C(=O)N[C@@H](CCCNC(=N)N)C(=O)N[C@]1(C)CCCCCCC=CCCC[C@@](C)(C(=O)N[C@@H](Cc2ccc(O)cc2)C(=O)N[C@@H](Cc2ccc(O)cc2)C(=O)N[C@@H](Cc2c[nH]cn2)C(N)=O)NC(=O)[C@H](CC(N)=O)NC(=O)[C@H](Cc2ccccc2)NC(=O)[C@H](C)NC(=O)[C@H](CC(=O)O)NC(=O)CNC(=O)[C@H]([C@@H](C)CC)NC1=O)[C@@H](C)CC` [compound 1764] (Ac-IWIAAALR[R8]IGDAFN[S5]YYH-NH2; staple 9-16), the pKi at Mcl-1 is 7.97.

As to `CC[C@H](C)[C@H](NC(C)=O)C(=O)N[C@@H](Cc1c[nH]c2ccccc12)C(=O)N[C@H](C(=O)N[C@@H](C)C(=O)N[C@@H](C)C(=O)N[C@@H](C)C(=O)N[C@@H](CC(C)C)C(=O)N[C@@H](CCCNC(=N)N)C(=O)N[C@]1(C)CCCCCCC=CCCC[C@@](C)(C(=O)N[C@@H](Cc2ccc(O)cc2)C(=O)N[C@@H](Cc2ccc(O)cc2)C(=O)N[C@@H](CCCCN)C(N)=O)NC(=O)[C@H](CC(N)=O)NC(=O)[C@H](Cc2ccccc2)NC(=O)[C@H](C)NC(=O)[C@H](CC(=O)O)NC(=O)CNC(=O)[C@H]([C@@H](C)CC)NC1=O)[C@@H](C)CC` [compound 1766] (Ac-IWIAAALR[R8]IGDAFN[S5]YYK-NH2; staple 9-16), at Mcl-1, the pKi was 8.18. Turning to `CC[C@H](C)[C@H](NC(C)=O)C(=O)N[C@@H](Cc1c[nH]c2ccccc12)C(=O)N[C@H](C(=O)N[C@@H](C)C(=O)N[C@@H](CCC(N)=O)C(=O)N[C@@H](C)C(=O)N[C@@H](CC(C)C)C(=O)N[C@@H](CCCNC(=N)N)C(=O)N[C@]1(C)CCCCCCC=CCCCC2(CCCC=CCCC[C@](C)(C(=O)N[C@@H](C)C(N)=O)NC(=O)[C@H](C)NC(=O)[C@H](Cc3ccc(O)cc3)NC(=O)[C@H](Cc3ccc(O)cc3)NC2=O)NC(=O)[C@H](CC(N)=O)NC(=O)[C@H](Cc2ccccc2)NC(=O)[C@H](CCC(=O)O)NC(=O)[C@H](CC(=O)O)NC(=O)CNC(=O)[C@H]([C@@H](C)CC)NC1=O)[C@@H](C)CC` (stereo partly shown) [compound 1784], the negative logarithm of the Ki (pKi) at Mcl-1 was 7.94.
